{"source": "patent US12545892B2", "about": "“Application of TGF-B inhibitor in inducing neural stem cells and organoid formation” (IREGENE THERAPEUTICS, CO., LTD., priority 2020, dated 2026)", "key": {"[1]": {"system": "human induced pluripotent stem cells", "test": "Brain organoid culture from induced pluripotent stem cells (formation, diameter)", "format": "cell-based", "conditions": "12.5 μM in basal medium to day 10, culture to day 120", "procedure": "Organoid culture was performed with human induced pluripotent stem cells. Organoid inducing medium was formulated as follows: NouvNeu basal medium supplemented with 12.5 μM LY2157299. Induced pluripotent stem cells were digested to single cells by Accutase, seeded in U-bottom-ultra-low attachment 96-well plates at a ratio of 9000 cells/[…] of brain organoid inducing medium per well. 10 μM ROCK inhibitor Y-27632 (Selleck, S1049) was added, and the cells were placed in a 37° C., 5% carbon dioxide cell incubator for 24 hours (Panasonic, model: MCO-18AC). Y-27632-free fresh organoid inducing medium was changed the following day until day 10. Day 10 the organoids were transferred to ultra-low-attachment 6-well plates and the medium was changed to NouvNeu001 basal medium supplemented with 2% B27 cell culture additive. The culture was conducted at 37° C. in a 5% CO2 cell culture incubator on a horizontal rotator at 80 rpm until day 120.\nThe control experiment was carried out according to the published method (Clair B et. al, Nat Methods. 2019, November; 16 (11): 1169-1175). N2B27 was used as the basic medium for organ like culture. […]\nOrganoids were photographed by Leica Dmi8. The brain organoids were photographed and their diameters were measured. […]"}, "HLA-DR": {"system": "HLA-DR", "test": "Flow cytometry detection of HLA-DR antigens of induced neural stem cells", "format": "cell-based, human", "conditions": "FIG. 7", "procedure": "The HLA-DR antigens of neural stem cells induced by LY2157299 were detected by flow cytometry. HLA-DR is an MHC class II molecule whose expression is critical for the antigen-presenting function of cells and plays a key role in adoptive immune responses. The induced neural stem cells obtained in Example 2 were digested with EDTA, washed with DPBS, centrifuged to remove the supernatant, and 10^6 Cells were resuspended in 100 μL of diluted primary antibody (CD45 PerCP, Abeam, Cat. No. ab157309; HLA-DR FITC, CST, Cat. No. 54126), incubated on ice for 1 hour in the dark, centrifuged to remove supernatant, and cells were resuspended in 500 μL of antibody dilution buffer (CST) and analyzed on a flow cytometer. Samples incubated without primary antibody were used as controls. The results are shown in FIG. 7, FIG. 7a is a negative control, FIG. 7b is the HLA-DR detection result of the neural stem cells obtained by LY2157299 induction."}, "[2]": {"system": "Human pluripotent stem cells", "test": "Chemical induction of neural stem cells from pluripotent stem cells (neural rosette formation, cell morphology)", "format": "cell-based", "text": "Human pluripotent stem cells include embryonic pluripotent stem cells, such as the H9 cell line and human induced pluripotent stem cells. Wherein, the human induced pluripotent stem cells used in the present invention are obtained from the reprogramming of CD34^+ cells, which refers to “reprogramming culture medium and reprogramming induced pluripotent stem cell culture method” (the method in the patent ZL201910050800.7).\nHuman pluripotent stem cells are used to coat T25 cell culture flasks with Matrigel ([…] Technologies), and then placed in a 37° C. incubator for more than one hour after plating. Follow 1×10^6 Cells were seeded in T25 flasks for expansion and passage.\nFor neural induction, use 50 μg/mL poly-lysine (SIGMA, Cat. No.: P6407) to coat a 6-well culture plate, and incubate at 37° C. for more than 3 hours after plating; then use 5 μg/mL Laminin (SIGMA ALDRICH, Cat. No.: 12020) for further coat, and then place in a 37° C. incubator to incubate for more than 3 hours. When pluripotent stem cells reached 70% coverage, they were digested with EDTA at 37° C. for 5 min, and DMEM was used to stop cell digestion. Cells are washed and centrifuged at 2×10^5 the proportions of each flask and are re-seeded in T25 plates. Neural induction is performed using the medium of the present invention in combination with the neural inducing compound, and the medium is changed every day until the neural stem cell rosette is formed. […] Therefore, the single-molecule inducing method provided by this method can induce pluripotent stem cells to form neural rosette structures more efficiently and uniformly.\n(§1) From the above results, it is known that the differentiation is not complete under the low concentration condition, and many different types of cells can be seen. However, neural stem cells obtained in high concentration condition are easily differentiated and cell stress appears."}, "[3]": {"system": "Human pluripotent stem cells", "test": "Cyquant assay of cell viability during neural induction", "format": "cell-based", "conditions": "samples on days 1, 5, 10, 15 and 20; control LSB method; FIG. 1c", "procedure": "(§2) The Cyquant assay was used to perform the quantitative detection of cell viability, thus investigating the effect of LY2157299 on the physiological state of the cells during long-term culture of the cells; Among them, the LSB method was used as the control group. 96-well light-tight cell culture plates were coated; after the coating was complete, cells were seeded separately at 5×10^4 cell number per well and three sets of parallel replicates were set (the average of three sets was calculated as data) to repeat the procedure of example 2.1. Wherein, the culture procedures described previously were incubated at 37° C. with 5% CO2. Samples were taken on days 1, 5, 10, 15 and 20 for cell viability assay using CyQuant Kit (Invitrogen, cat. No: X12223). The aforementioned assay was operated according to the instructions with a Spectramax i3 Multi-Mode Microplate Reader (VWR, model number: ID3-STD) for data reading."}, "[4]": {"system": "neural stem cells obtained by the LY inducing method", "test": "Directed differentiation of induced neural stem cells into neurons (immunofluorescence)", "format": "cell-based, human", "procedure": "The neural stem cells obtained by the LY inducing method in Example 2 were subjected to directed differentiation in NouvNeu001 basal medium. For neuronal differentiation, use 50 μg/mL polylysine (SIGMA ALDRICH, Cat. No.: P6407) to coat a 6-well culture plate, and place the plate in a 37° C. incubator and incubate for more than 3 hours until cells are seeded.\nThe neural stem cells obtained in example 2 were seeded at a density of 1×10^5 the ratio per flask was inoculated in T25 flasks, and 3 μM CHIR99021 (Selleck, Cat. No.: S2924), 10 μM SU5402 (Tocris, Cat. No.: 3300/1), 10 μM DAPT (Selleck, Cat. No.: S2215) were added to NouvNeu001 basal medium. Fresh medium was replaced every 3 days until day 21. The above cultures were incubated at 37° C. with 5% CO2.\nThe neural stem cells obtained in example 2 were seeded at a density of 1×10^5 the ratio per flask was inoculated in T25 flasks, and 1 μM Purmorphamine (Sellek, Cat. No.: S3042) and 1 ng/mL TGF-β3 (Novoprotein, Cat. No.: CJ44) were added to NouvNeu001 basal medium to culture neural stem cells. Fresh medium was replaced every 3 days until day 30. The above cultures were incubated at 37° C. with 5% CO2.\nThe neural stem cells obtained in example 2 were seeded at a density of 1×10^5 the ratio per flask was inoculated in T25 flasks, and 0.5 μM retinyl acetate (SIGMA ALDRICH, Cat. No.: R7782) was added to NouvNeu001 basal medium. Fresh medium was replaced every 3 days until day 24. The above cultures were incubated at 37° C. with 5% CO2.\nAfter induction and differentiation, the cells were harvested and identified by immunofluorescence staining: cells were fixed with 4% paraformaldehyde at room temperature for 40 minutes, washed twice with DPBS buffer; then permeabilized with 0.1% Triton X-100 for 5 minutes, and buffered with DPBS The cells were then washed twice with DPBS buffer containing 10% horse serum and 0.1% Triton X-100 at 4° C. overnight; the cells were washed with DPBS buffer and then washed with 2% horse serum and 0.1% Triton X-100. […]"}, "[5]": {"system": "Sox2, Pax6, Nestin, CASP3", "test": "Q-PCR of marker genes during induction from pluripotent stem cells to neural stem cells", "format": "cell-based, human", "conditions": "different concentrations", "procedure": "Transcriptional changes of different marker genes during induction from pluripotent stem cells to neural stem cells were detected by using Q-PCR. The induced pluripotent stem cells used in this example are neural stem cells derived by LY inducing method and LSB inducing method, respectively. Neural stem cells were prepared as described previously using Rneasy Mini or Micro Kit (QIAGEN) for total RNA extraction, in which […] RNA was used to synthesize cDNA with superscript III First-Strand Synthesis System (Invitrogen).\nAll the above data were analyzed with the delta-Ct method. Each set of trials was tested using three sets of replicates, and variance statistics were performed.\nas §1"}, "[6]": {"system": "MHC associated genes CD4, HLA-A, HLA-C, hla-f, and HLA-DPB1", "test": "Q-PCR detection of MHC genes of induced neural stem cells", "format": "cell-based", "conditions": "compared with human pluripotent stem cells; FIG. 6", "text": "The major histocompatibility complex (MHC) genes of neural stem cells induced by LY2157299 was detected by Q-PCR method, and pluripotent stem cells (iPS) were used as control."}, "[7]": {"test": "Freezing point osmometer, osmolality of the culture system", "format": "physicochemical", "conditions": "sodium chloride concentration 1 μg/mL; FIG. 2a", "text": "A fully automated freezing point osmometer (FM-8P, Shanghai Yida Instruments Co., Ltd.) was used to detect the effects of different concentrations of sodium chloride on the osmolality of the culture system, and the specific operations were enrolled in the product instructions (FM-8P, Shanghai Yida Instruments Co., Ltd.). The test results are detailed in FIG. 2a. The results illustrate a linear increase with the concentration of sodium chloride and the osmotic pressure of the culture system. However, when the concentration reached 1 μg/mL, the osmolality of the culture system already exceeded the cell culture limit of 320 mOsm/kg."}, "[8]": {"system": "Human pluripotent stem cells", "test": "CyQuant assay of medium components (cell viability in long-term culture)", "format": "cell-based", "conditions": "different concentrations, FIG. 2b-2c", "procedure": "as §2"}}, "data": [{"compound": "Cc1cccc(-c2nn3c(c2-c2ccnc4ccc(C(N)=O)cc24)CCC3)n1", "note": "[LY2157299, 4-(2-(6-methylpyridin-2-yl)-5,6-dihydro-4h-pyrrolo[1,2-b]pyrazol-3-yl) quinoline-6-carboxamide]", "values": [{"measurement": "generation of cerebral organoids", "setting": "[1]", "result": "can induce the generation of cerebral organoids"}, {"measurement": "HLA-DR antigen expression of induced neural stem cells (flow cytometry)", "setting": "HLA-DR", "result": "do not express HLA-DR"}, {"measurement": "cell population obtained by chemical induction", "setting": "[2]; 12.5 μM in NouvNeu001 basal medium, FIG. 4d", "result": "resulted in a uniform cell population"}, {"measurement": "cell population obtained by chemical induction", "setting": "[2]; 25 μM in NouvNeu001 basal medium, FIG. 4e", "result": "a mixed population of neural cells was obtained"}, {"measurement": "cell stress during chemical induction", "setting": "[2]; 25 μM, FIG. 4e", "result": "cells showed signs of stress with intracellular vacuoles"}, {"measurement": "cell population obtained by chemical induction", "setting": "[2]; in NouvNeu001 basal medium, FIG. 4c", "result": "a mixed population of cells including neural cells was obtained"}, {"measurement": "number of neural cells (cell viability, CyQuant)", "setting": "[3]", "result": "induced more number of neural cells compared with LSB method"}, {"measurement": "nociceptor neuron differentiation of induced neural stem cells, marker expression", "setting": "[4]; CHIR99021, SU5402, DAPT until day 21, FIG. 5a-5c", "result": "express the nociceptor neuron specific marker SCNI11A"}, {"measurement": "dopaminergic neuron differentiation of induced neural stem cells, marker expression", "setting": "[4]; Purmorphamine, TGF-β3 until day 30, FIG. 5d-5f", "result": "can express mature dopaminergic neuron specific marker Pitx3"}, {"measurement": "photoreceptor neuron differentiation of induced neural stem cells, marker expression", "setting": "[4]; retinyl acetate until day 24, FIG. 5g-5i", "result": "can express the photoreceptor neuron specific marker OPSIN"}, {"measurement": "regulation of Pax6 expression by concentration (Q-PCR)", "setting": "[5]; FIG. 4f", "result": "positively correlated with Pax6 expression"}, {"measurement": "regulation of apoptosis gene CASP3 by concentration (Q-PCR)", "setting": "[5]; FIG. 4g", "result": "positively correlated with apoptosis"}, {"measurement": "expression of MHC associated genes in induced neural stem cells (Q-PCR)", "setting": "[6]", "result": "expressed at extremely low levels"}]}, {"compound": "[Cl-].[Na+]", "note": "[sodium chloride]", "values": [{"measurement": "osmolality of the culture system", "setting": "[7]", "result": "> 320", "unit": "mOsm/kg"}]}, {"compound": "recombinant insulin: component of the basal medium, screened at different concentrations", "values": [{"measurement": "effect of concentration on cell proliferation (CyQuant)", "setting": "[8]", "result": "positively correlated with the rate of cell proliferation"}]}]}
